Data: the NIST ThermoML archive (doi:10.1016/j.jct.2014.04.026)
“And” between values parts separate entries of the source, which are not always exact repeats. Identical values can stand only once.

Legend:
[1] = Molar enthalpy of transition or fusion; details: Crystal; DSC
[2] = for vapor or sublimation pressure: Closed cell (Static) method; for Normal melting temperature: DTA

Cn1ccc2ccccc21 [1-methylindole]
Details | Molar enthalpy of transition or fusion [kJ/mol]
[1] | 10.9

[2]
Details | vapor or sublimation pressure [kPa]
267.62 K, Crystal | 0.00033
268.58 K, Liquid | 0.00043
268.6 K, Crystal | 0.00037
269.57 K, Crystal | 0.00042
270.55 K, Crystal | 0.00048
270.56 K, Liquid | 0.00054
271.57 K, Crystal | 0.00054
272.5 K, Liquid | 0.00066
272.52 K, Crystal | 0.0006
273.51 K, Crystal | 0.00068
274.48 K, Liquid | 0.00081
274.5 K, Crystal | 0.00077
275.47 K, Crystal | 0.00086
276.45 K, Liquid | 0.00097
278.42 K, Liquid | 0.0012
280.39 K, Liquid | 0.00145
282.35 K, Liquid | 0.00176
284.36 K, Liquid | 0.00211
286.31 K, Liquid | 0.00252
288.32 K, Liquid | 0.00302
290.27 K, Liquid | 0.00358
290.29 K, Liquid | 0.00359
292.29 K, Liquid | 0.00431
294.24 K, Liquid | 0.00507
296.28 K, Liquid | 0.00607
298.2 K, Liquid | 0.0071
300.25 K, Liquid | 0.00844
302.2 K, Liquid | 0.00987
304.21 K, Liquid | 0.01167
306.16 K, Liquid | 0.01359
308.14 K, Liquid | 0.0158
310.17 K, Liquid | 0.01854
312.14 K, Liquid | 0.02149
314.11 K, Liquid | 0.02521
316.14 K, Liquid | 0.029
318.06 K, Liquid | 0.03354
320.05 K, Liquid | 0.03839
322.02 K, Liquid | 0.0445
324.04 K, Liquid | 0.05044
326.02 K, Liquid | 0.05848
327.98 K, Liquid | 0.06647
329.95 K, Liquid | 0.07637
331.91 K, Liquid | 0.08658
333.89 K, Liquid | 0.09881
335.91 K, Liquid | 0.1114
337.89 K, Liquid | 0.1263
339.81 K, Liquid | 0.1424
341.9 K, Liquid | 0.1624

Details | Normal melting temperature [°C]
[2], Crystal | 3.4

Cn1cccn1 [1-methyl-1H-pyrazole]
Details | Molar enthalpy of transition or fusion [kJ/mol]
[1] | 11.4

[2], Liquid
Details | vapor or sublimation pressure [kPa]
253.9 K | 0.0681
255.85 K | 0.08089
257.81 K | 0.0948
260.03 K | 0.1138
261.7 K | 0.1308
263.65 K | 0.1508
265.63 K | 0.1755
267.62 K | 0.2033
269.55 K | 0.2358
271.5 K | 0.2714
273.47 K | 0.3111
275.47 K | 0.3597
277.42 K | 0.4115
279.4 K | 0.4704
281.39 K | 0.539
283.35 K | 0.6108
285.3 K | 0.6958
287.32 K | 0.7878
289.32 K | 0.893
291.27 K | 1.01
293.27 K | 1.147

Details | Normal melting temperature [°C]
[2], Crystal | -43.9

Cn1cnc2ccccc21 [1-methylbenzimidazole]
Details | Molar enthalpy of transition or fusion [kJ/mol]
[1] | 13.9

[2]
Details | vapor or sublimation pressure
301.22 K, Crystal | 0.00026 kPa
303.14 K, Crystal | 0.00033 kPa
303.16 K, Liquid | 0.00051 kPa
305.14 K, Crystal | 0.00042 kPa
305.18 K, Crystal | 0.00041 kPa
305.2 K, Liquid | 0.00062 kPa
307.12 K, Liquid | 0.00074 kPa
307.14 K, Crystal | 0.00051 kPa
309.1 K, Liquid | 0.00089 kPa
309.11 K, Crystal | 0.00063 kPa
311.07 K, Crystal | 0.00078 kPa
311.09 K, Liquid | 0.00107 kPa
313.09 K, Crystal | 0.00097 kPa
313.12 K, Liquid | 0.00128 kPa
315.09 K, Liquid | 0.00153 kPa
315.1 K, Crystal | 0.00119 kPa
317.04 K, Liquid | 0.00182 kPa
317.06 K, Crystal | 0.00146 kPa
319.03 K, Crystal | 0.00178 kPa
319.07 K, Liquid | 0.00217 kPa
321.01 K, Liquid | 0.00255 kPa
321.02 K, Crystal | 0.00217 kPa
322.97 K, Crystal | 0.00264 kPa
322.99 K, Liquid | 0.00304 kPa
325.01 K, Crystal | 0.00324 kPa
327 K, Crystal | 0.00392 kPa
328.91 K, Crystal | 0.00473 kPa
332.95 K, Liquid | 0.00656 kPa
334.92 K, Liquid | 0.00759 kPa
336.91 K, Liquid | 0.0089 kPa
336.92 K, Liquid | 0.00896 kPa
338.9 K, Liquid | 0.01031 kPa
340.86 K, Liquid | 0.01187 kPa
340.87 K, Liquid | 0.01203 kPa
342.88 K, Liquid | 0.01375 kPa
344.83 K, Liquid | 0.01603 kPa and 0.01591 kPa
346.81 K, Liquid | 0.01835 kPa
348.79 K, Liquid | 0.02107 kPa
350.76 K, Liquid | 0.02401 kPa
352.73 K, Liquid | 0.02767 kPa and 0.02759 kPa
354.7 K, Liquid | 0.03132 kPa
356.69 K, Liquid | 0.03607 kPa
358.67 K, Liquid | 0.04098 kPa
360.63 K, Liquid | 0.04632 kPa
362.6 K, Liquid | 0.05225 kPa
364.59 K, Liquid | 0.05898 kPa
366.55 K, Liquid | 0.06653 kPa
368.53 K, Liquid | 0.07509 kPa
370.5 K, Liquid | 0.08443 kPa
372.49 K, Liquid | 0.09469 kPa

Details | Normal melting temperature [°C]
[2], Crystal | 56.1
